Source: paper PMC5601625, “Defining a therapeutic window for kinase inhibitors in leukemia to avoid neutropenia” (Oncotarget, 2017)
“Also recorded” adds a separate entry of the source. Like-named read-outs stand apart in the source and are kept apart here.

Tests used:
Assay in all cases: Cell Titer Glo cell viability assay, 48 h
Type in all cases: cell-based, human
EOL-1 = settings: 48 h, mean of 2 independent experiments, 0 = less than 10 nM, cell line not given, read-out: IC50 of inhibitors on cell lines, m (mean)
Procedure: (§1) The activity of the kinase inhibitor collection against a panel of human leukemia cell lines was determined in cell viability assays run over 48 h using the Cell Titer Glo reagent.
(§2) Figure 1 Effects of kinase inhibition on the proliferation of leukemia cells A. Human leukemia cell lines were treated with duplicate serial dilutions of kinase inhibitors and the effect on cell viability was determined by Cell Titer Glo assay after 48 hours. […] HL-60 cells were treated with serial dilutions of mTor/PI3K B. and MEK C. inhibitors and the effect on cell viability was determined after 48 hours. Data shown is the mean ± SEM of 3 independent experiments.
(§3) Leukemia and lymphoma cell lines were grown in RPMI containing 10% FCS. […] Cell lines are routinely tested for mycoplasma and genotyped by short tandem repeating (STR) profiling to confirm identity.
(§4) Compounds were obtained from SynMedChem and dissolved at […] in DMSO. Serial 2-fold dilutions of each compound were prepared in DMSO using a liquid handling robot (Janus, Perkin Elmer). Each dilution (100nL) was transferred to duplicate tissue culture plates containing 50 μL of media containing 5 × 10^3 cells using a 384 well pin tool. Cells were incubated for 48 h and cell viability was determined using Cell Titer Glow reagents as described by the manufacturer (Promega). Data was acquired using a luminescent plate reader (Envision, Perkin Elmer) and analysed using Activity Base (IDBS, Guilford, UK) and visualised using Spotfire (TIBCO, Palo Alto, CA) as described previously. Each cell line was assayed in independent experiments on at least two occasions. […] Serial 2-fold dilutions of each compound were prepared in media containing 0.2% DMSO and 50 μl of each dilution was added to 10^4 cells in 50 μl of media. Cells were incubated for 48 h and cell viability was determined using Cell Titer Glow assay as described above.

JURKAT = settings: 48 h, mean of 2 independent experiments, 0 = less than 10 nM, cell line not given, read-out: IC50 of inhibitors on cell lines, m (mean)
Procedure: as §1, §2, §3, §4

U937 = settings: 48 h, mean of 2 independent experiments, 0 = less than 10 nM, cell line not given, read-out: IC50 of inhibitors on cell lines, m (mean)
Procedure: as §1, §2, §3, §4

OCI-AML3 = settings: 48 h, mean of 2 independent experiments, 0 = less than 10 nM, cell line not given, read-out: IC50 of inhibitors on cell lines, m (mean)
Procedure: as §1, §2, §3, §4

K562 = settings: 48 h, mean of 2 independent experiments, 0 = less than 10 nM, cell line not given, read-out: IC50 of inhibitors on cell lines, m (mean)
Procedure: as §1, §2, §3, §4

THP-1 = settings: 48 h, mean of 2 independent experiments, 0 = less than 10 nM, cell line not given, read-out: IC50 of inhibitors on cell lines, m (mean)
Procedure: as §1, §2, §3, §4

KU-812 = settings: 48 h, mean of 2 independent experiments, 0 = less than 10 nM, cell line not given, read-out: IC50 of inhibitors on cell lines, m (mean)
Procedure: as §1, §2, §3, §4

MEG-01 = settings: 48 h, mean of 2 independent experiments, 0 = less than 10 nM, cell line not given, read-out: IC50 of inhibitors on cell lines, m (mean)
Procedure: as §1, §2, §3, §4

HEL.92.1.7 = settings: 48 h, mean of 2 independent experiments, 0 = less than 10 nM, cell line not given, read-out: IC50 of inhibitors on cell lines, m (mean)
Procedure: as §1, §2, §3, §4

MOLT4 = settings: 48 h, mean of 2 independent experiments, 0 = less than 10 nM, cell line not given, read-out: IC50 of inhibitors on cell lines, m (mean)
Procedure: as §1, §2, §3, §4

MV4;11 = settings: 48 h, mean of 2 independent experiments, 0 = less than 10 nM, cell line not given, read-out: IC50 of inhibitors on cell lines, m (mean)
Procedure: as §1, §2, §3, §4

HL-60 = settings: 48 h; for IC50: mean of 2 independent experiments, 0 = less than 10 nM, cell line not given, read-out: IC50 of inhibitors on cell lines, m (mean); for anti-proliferative activity in HL-60 cells: dose-response, Cell Titer Glo
Procedure: as §1, §2, §3, §4

IC50 (JURKAT; Homo sapiens) [µM]	IC50 (U937; Homo sapiens, U-937) [µM]	IC50 (OCI-AML3; Homo sapiens, OCI-AML-3) [µM]	IC50 (K562; Homo sapiens) [µM]	IC50 (THP-1; Homo sapiens) [µM]	IC50 (MOLT4; Homo sapiens, MOLT-4) [µM]	IC50 (MV4;11; Homo sapiens) [µM]	IC50 (HL-60; Homo sapiens) [µM]	Structure (SMILES)	IC50 (EOL-1; Homo sapiens, EOL1) [µM]	IC50 (KU-812; Homo sapiens, KU812) [µM]	IC50 (MEG-01; Homo sapiens) [µM]	IC50 (HEL.92.1.7; Homo sapiens) [µM]	other results
9.01	5.04	> 10	9.11	7.37	3.58	0.01	6.62	O=C(Nc1cccc(Cl)c1)Nc1ncc(CCNc2ncnc3ccsc23)s1 [SNS-314]	0.02	0.83	8.15	> 10	
								CN(c1ccccc1CNc1nc(Nc2ccc3c(c2)CC(=O)N3)ncc1C(F)(F)F)S(C)(=O)=O [PF431396]					IC50 (EOL-1): 1.52 µM; IC50 (JURKAT): 3.61 µM; IC50 (U937): 1.23 µM; IC50 (OCI-AML3): 2.96 µM; IC50 (K562): 7.1 µM; IC50 (THP-1): 3.66 µM; IC50 (KU-812): 5.24 µM; IC50 (MEG-01): 6.32 µM; IC50 (HEL.92.1.7): 4.07 µM; IC50 (MOLT4): 6.42 µM; IC50 (MV4;11): 0.16 µM; IC50 (HL-60): 1.64 µM
								CC1=C(C(=O)Nc2cc3cn[nH]c3cc2F)C(c2ccc(C(F)(F)F)cc2)CC(=O)N1 (stereo not shown) [RHO-15]					IC50 (EOL-1): 0.19 µM; IC50 (JURKAT): > 10 µM; IC50 (U937): 9.64 µM; IC50 (OCI-AML3): > 10 µM; IC50 (K562): 7.75 µM; IC50 (THP-1): > 10 µM; IC50 (KU-812): 2.11 µM; IC50 (MEG-01): 5.14 µM; IC50 (HEL.92.1.7): > 10 µM; IC50 (MOLT4): > 10 µM; IC50 (MV4;11): 7.22 µM; IC50 (HL-60): > 10 µM
4.96	5.46	0.8	0.43	5.75	2.59	0.05	2.45	Cc1cc(Nc2cc(N3CCN(C)CC3)nc(Sc3ccc(NC(=O)C4CC4)cc3)n2)[nH]n1 [VX-680]	0.07	0.18	0.53	7.99	
6.28	9.46	> 10	2.73	> 10	6.79	0.86	7.28	COc1cc2c(Nc3ccc(Br)cc3F)ncnc2cc1OCC1CCN(C)CC1 [Vandetanib]	0.19	0.82	1.51	> 10	
								O=C(NOC[C@H](O)CO)c1ccc(F)c(F)c1Nc1ccc(I)cc1F [PD0325901]					anti-proliferative activity in HL-60 cells (HL-60): potent activity selectively against the HL-60 cell line; also recorded: selective activity
> 10	5.33	5.46	9.94	> 10	> 10	0.01	5.73	CNC(=O)c1cc(Oc2ccc(NC(=O)Nc3ccc(Cl)c(C(F)(F)F)c3)cc2)ccn1 [Sorafenib]		3.79	6.28	> 10	
> 10	> 10	> 10	8.11	> 10	> 10	5.11	> 10	Cc1[nH]c(/C=C2\C(=O)Nc3ccccc32)c(C)c1CCC(=O)O [SU-6668]	0.84	> 10	> 10	> 10	
								CS(=O)(=O)N1CCN(Cc2cc3nc(-c4cccc5[nH]ncc45)nc(N4CCOCC4)c3s2)CC1 [GDC-0941]					anti-proliferative activity in HL-60 cells (HL-60): significant anti-proliferative activity
								Cc1c[nH]c(/C=C2\C(=O)Nc3ccccc32)c1CCC(=O)O [SU-5402]					IC50 (EOL-1): 1.43 µM; IC50 (JURKAT): > 10 µM; IC50 (U937): > 10 µM; IC50 (OCI-AML3): > 10 µM; IC50 (K562): > 10 µM; IC50 (THP-1): > 10 µM; IC50 (KU-812): 9.28 µM; IC50 (MEG-01): > 10 µM; IC50 (HEL.92.1.7): > 10 µM; IC50 (MOLT4): > 10 µM; IC50 (MV4;11): 0.73 µM; IC50 (HL-60): > 10 µM
9.68	8.5	> 10	> 10	> 10	> 10	5.6	> 10	CCCS(=O)(=O)Nc1ccc(F)c(C(=O)c2c[nH]c3ncc(Cl)cc23)c1F [PLX4720]	4.2	0.45	0.84	> 10	
								Nc1ccc(C(=O)Nc2cccc(-c3nc(N4CCOCC4)c4oc5ncccc5c4n3)c2)cn1 [YM201636]					IC50 (EOL-1): 5.88 µM; IC50 (JURKAT): 3.94 µM; IC50 (U937): 2.39 µM; IC50 (OCI-AML3): 3.88 µM; IC50 (K562): 9.65 µM; IC50 (THP-1): 8.78 µM; IC50 (KU-812): 4.28 µM; IC50 (MEG-01): 9.12 µM; IC50 (HEL.92.1.7): 7.14 µM; IC50 (MOLT4): 6.99 µM; IC50 (MV4;11): 7.33 µM; IC50 (HL-60): 4.82 µM
1.62	1.16	1.02	4.75	1.8	2.54	0.01	1.46	CCN(CC)CCNC(=O)c1c(C)[nH]c(/C=C2\C(=O)Nc3ccc(F)cc32)c1C [Sunitinib]	0.01	1.56	2.39	2.61	
								Cc1cc(C(C)Nc2ccccc2)c2nc(N3CCOCC3)cc(=O)n2c1 (stereo not shown) [TGX221]					IC50 (EOL-1): 0.43 µM; IC50 (JURKAT): 9.84 µM; IC50 (U937): 9.85 µM; IC50 (OCI-AML3): 9.72 µM; IC50 (K562): 9.16 µM; IC50 (THP-1): > 10 µM; IC50 (KU-812): > 10 µM; IC50 (MEG-01): > 10 µM; IC50 (HEL.92.1.7): > 10 µM; IC50 (MOLT4): > 10 µM; IC50 (MV4;11): 0.65 µM; IC50 (HL-60): > 10 µM
> 10	> 10	> 10	> 10	> 10	> 10	6.16	> 10	COc1nccc(-c2c(-c3ccc(F)cc3)ncn2C2CCNCC2)n1 [SB242235]	0.51	> 10	2.18	> 10	
								O=C1NC(=O)/C(=C/c2cccc(C(F)(F)F)c2)S1 [SMI-4a]					IC50 (EOL-1): 0.13 µM; IC50 (JURKAT): > 10 µM; IC50 (U937): > 10 µM; IC50 (OCI-AML3): > 10 µM; IC50 (K562): 2.74 µM; IC50 (THP-1): > 10 µM; IC50 (KU-812): 4.54 µM; IC50 (MEG-01): 5.78 µM; IC50 (HEL.92.1.7): > 10 µM; IC50 (MOLT4): > 10 µM; IC50 (MV4;11): 9.71 µM; IC50 (HL-60): > 10 µM
> 10	> 10	> 10	> 10	> 10	> 10	> 10	> 10	NC(=O)c1ccc(N(C(N)=O)c2c(F)cccc2F)nc1-c1ccc(F)cc1F [VX702]	5.5	> 10	> 10	> 10	
								O=C(NOCC1CC1)c1ccc(F)c(F)c1Nc1ccc(I)cc1Cl [CI-1040]					anti-proliferative activity in HL-60 cells (HL-60): potent activity selectively against the HL-60 cell line; also recorded: selective activity
2.7	6.31	3.44	0.59	5.85	3.69	0.04	3.55	COC(=O)c1ccc2c(c1)NC(=O)/C2=C(\Nc1ccc(N(C)C(=O)CN2CCN(C)CC2)cc1)c1ccccc1 [Vargatef]		0.24	0.46	2.97	
								CC(=O)Nc1cccc(-n2c(=O)n(C3CC3)c(=O)c3c(Nc4ccc(I)cc4F)n(C)c(=O)c(C)c32)c1 [GSK-1120212]					anti-proliferative activity in HL-60 cells (HL-60): selective activity
								COc1ccc(-c2cc3c(C)nc(N)nc3n([C@H]3CC[C@H](OCCO)CC3)c2=O)cn1 [PF-04691502]					anti-proliferative activity in HL-60 cells (HL-60): significant anti-proliferative activity
								CN(C)C1CCN(C(=O)c2ccc(NC(=O)Nc3ccc(-c4nc(N5CCOCC5)nc(N5CCOCC5)n4)cc3)cc2)CC1 [PKI-587]					anti-proliferative activity in HL-60 cells (HL-60): significant anti-proliferative activity
